Laboratory results from ChEMBL document CHEMBL1201862, “PubChem BioAssay data set” (2004).
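Following 48 hours of exposure in 96-well plates, responses at five concentrations were used to interpolate endpoints linearly. At the GI50, growth is halved.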 Activity calls are given as the source filed them. No stated cut-off is given here; in the data, active = GI50 up to about 1.1 µM and inactive = higher.

Tests used:
Test in all cases: growth of human tumour cells (NCI), 48 h
SF-539 = tested on: SF-539
UACC-62 = tested on: UACC-62
KM12 = tested on: KM12
HOP-62 = tested on: HOP-62
CCRF-CEM = tested on: CCRF-CEM
ACHN = tested on: ACHN
TK-10 = tested on: TK-10
COLO 205 = tested on: COLO 205
HT-29 = tested on: HT-29
OVCAR-8 = tested on: OVCAR-8
SW-620 = tested on: SW-620
UO-31 = tested on: UO-31
M14 = tested on: M14
HCT-15 = tested on: HCT-15
EKVX = tested on: EKVX
OVCAR-5 = tested on: OVCAR-5
SK-MEL-5 = tested on: SK-MEL-5
SF-295 = tested on: SF-295
UACC-257 = tested on: UACC-257

Row | SMILES | GI50 (SF-539) | GI50 (UACC-62) | GI50 (KM12) | GI50 (HOP-62) | GI50 (CCRF-CEM) | GI50 (ACHN) | GI50 (TK-10) | GI50 (COLO 205) | GI50 (HT-29) | GI50 (OVCAR-8) | GI50 (SW-620) | GI50 (UO-31) | GI50 (M14) | GI50 (HCT-15) [µM] | GI50 (EKVX) | GI50 (OVCAR-5) | GI50 (SK-MEL-5) | GI50 (SF-295) | GI50 (UACC-257)
1 | CC(C)OP(=O)(OC(C)C)C1=NN(c2ccc([N+](=O)[O-])cc2)C(P(=O)(OC(C)C)OC(C)C)=NN1c1ccc([N+](=O)[O-])cc1 | 31 µM (inactive) | > 100 µM (inactive) | 67.3 µM (inactive) | > 100 µM (inactive) | 91.4 µM (inactive) | > 100 µM (inactive) | > 100 µM (inactive) | > 100 µM (inactive) | 44 µM (inactive) | 38.1 µM (inactive) | > 100 µM (inactive) | 95.7 µM (inactive) | > 100 µM (inactive) | 9.18 | 8.91 µM (inactive) | > 100 µM (inactive) | 24.5 µM (inactive) | – | –
2 | C[n+]1c2ccccc2c(NC(CCCNC(=N)N)C(=O)O)c2ccccc21 (centres undefined) | > 100 µM (inactive) | > 100 µM (inactive) | > 100 µM (inactive) | > 100 µM (inactive) | – | > 100 µM (inactive) | > 100 µM (inactive) | > 100 µM (inactive) | > 100 µM (inactive) | > 100 µM (inactive) | > 100 µM (inactive) | 75.2 µM (inactive) | > 100 µM (inactive) | > 100 | > 100 µM (inactive) | > 100 µM (inactive) | 85.9 µM (inactive) | > 100 µM (inactive) | > 100 µM (inactive)
3 | [O-]/N=[N+](/[O-])C1CCCCC1=[N+]1CCOCC1 (centres undefined) | – | > 100 µM (inactive) | > 100 µM (inactive) | > 100 µM (inactive) | > 100 µM (inactive) | > 100 µM (inactive) | > 100 µM (inactive) | > 100 µM (inactive) | > 100 µM (inactive) | > 100 µM (inactive) | > 100 µM (inactive) | > 100 µM (inactive) | > 100 µM (inactive) | – | > 100 µM (inactive) | > 100 µM (inactive) | – | > 100 µM (inactive) | > 100 µM (inactive)
4 | CC(C)OP(=O)(OC(C)C)/C(=N/Nc1ccc([N+](=O)[O-])cc1)NN | > 100 µM (inactive) | 34.4 µM (inactive) | > 100 µM (inactive) | > 100 µM (inactive) | > 100 µM (inactive) | 98.6 µM (inactive) | > 100 µM (inactive) | > 100 µM (inactive) | – | > 100 µM (inactive) | > 100 µM (inactive) | 88.5 µM (inactive) | > 100 µM (inactive) | > 100 | 61.9 µM (inactive) | > 100 µM (inactive) | 35.7 µM (inactive) | – | 24.9 µM (inactive)
5 | O=C1c2ccccc2C(=O)c2nc3c(O)cccc3cc21 | 28.4 µM (inactive) | 37.3 µM (inactive) | 47.6 µM (inactive) | 38.9 µM (inactive) | – | 27 µM (inactive) | 74.5 µM (inactive) | 23.8 µM (inactive) | 21 µM (inactive) | 26 µM (inactive) | 3.57 µM (inactive) | 14.5 µM (inactive) | 6.34 µM (inactive) | 13 | 14.5 µM (inactive) | 89.7 µM (inactive) | 3.6 µM (inactive) | 12.7 µM (inactive) | 10.3 µM (inactive)
6 | CN1CCc2cc(O)c3cc2C1Cc1ccc(cc1)Oc1cc(ccc1O)CC1c2c(cc4c(c2O3)OCO4)CCN1C (centres undefined) | 17.3 µM (inactive) | 24.2 µM (inactive) | 29.9 µM (inactive) | – | 27.7 µM (inactive) | 28.7 µM (inactive) | 24.2 µM (inactive) | 13.5 µM (inactive) | 21.2 µM (inactive) | 19.8 µM (inactive) | – | 1.6 µM (inactive) | 16.8 µM (inactive) | 22.5 | 18.1 µM (inactive) | 27 µM (inactive) | 18.9 µM (inactive) | 21.5 µM (inactive) | –
7 | C1=C(c2ccccc2)SC(N2CCCCC2)S1 (centres undefined) | > 100 µM (inactive) | > 100 µM (inactive) | > 100 µM (inactive) | > 100 µM (inactive) | 95.5 µM (inactive) | – | > 100 µM (inactive) | > 100 µM (inactive) | > 100 µM (inactive) | – | > 100 µM (inactive) | > 100 µM (inactive) | > 100 µM (inactive) | > 100 | 86.7 µM (inactive) | > 100 µM (inactive) | – | > 100 µM (inactive) | > 100 µM (inactive)
8 | O=c1cc(-c2ccc(Cl)cc2)oc2cc(OCCCOc3ccc4c(=O)cc(-c5ccc(Cl)cc5)oc4c3)ccc12 | > 100 µM (inactive) | > 100 µM (inactive) | > 100 µM (inactive) | > 100 µM (inactive) | > 100 µM (inactive) | > 100 µM (inactive) | > 100 µM (inactive) | > 100 µM (inactive) | > 100 µM (inactive) | > 100 µM (inactive) | > 100 µM (inactive) | – | > 100 µM (inactive) | > 100 | > 100 µM (inactive) | > 100 µM (inactive) | > 100 µM (inactive) | > 100 µM (inactive) | > 100 µM (inactive)
9 | CC(=O)c1sc(Nc2nnc(-c3ccc(-c4nnc(Nc5nc(C)c(C(C)=O)s5)o4)cc3)o2)nc1C | – | > 100 µM (inactive) | > 10 µM (inactive) | > 100 µM (inactive) | > 100 µM (inactive) | > 100 µM (inactive) | > 100 µM (inactive) | > 100 µM (inactive) | > 100 µM (inactive) | > 100 µM (inactive) | > 100 µM (inactive) | > 10 µM (inactive) | > 100 µM (inactive) | > 100 | > 100 µM (inactive) | > 10 µM (inactive) | – | > 100 µM (inactive) | > 100 µM (inactive)
10 | O=C(CC1(O)C(=O)Nc2ccc(Br)cc21)c1cccc([N+](=O)[O-])c1 (centres undefined) | – | – | 42.6 µM (inactive) | 49.5 µM (inactive) | 24.1 µM (inactive) | 60.5 µM (inactive) | > 100 µM (inactive) | > 100 µM (inactive) | 32.7 µM (inactive) | 35.5 µM (inactive) | 37.8 µM (inactive) | 64.9 µM (inactive) | 48.8 µM (inactive) | 56 | 40.7 µM (inactive) | > 100 µM (inactive) | > 10 µM (inactive) | 59 µM (inactive) | 27.9 µM (inactive)
11 | O=C1NC2CCC(C2)C1c1ccccc1 (centres undefined) | > 100 µM (inactive) | > 100 µM (inactive) | > 100 µM (inactive) | – | > 100 µM (inactive) | > 100 µM (inactive) | > 100 µM (inactive) | > 100 µM (inactive) | > 100 µM (inactive) | > 100 µM (inactive) | > 100 µM (inactive) | > 100 µM (inactive) | > 100 µM (inactive) | – | > 100 µM (inactive) | > 100 µM (inactive) | > 100 µM (inactive) | > 100 µM (inactive) | –
12 | COC(=O)c1cc(CC(C)C)c2c(c1)[nH]c1ccccc12 | > 100 µM (inactive) | 96.8 µM (inactive) | 91.2 µM (inactive) | – | > 100 µM (inactive) | > 100 µM (inactive) | > 100 µM (inactive) | > 100 µM (inactive) | > 100 µM (inactive) | > 100 µM (inactive) | 47.2 µM (inactive) | > 100 µM (inactive) | > 100 µM (inactive) | 52.1 | > 100 µM (inactive) | > 100 µM (inactive) | 78.7 µM (inactive) | > 100 µM (inactive) | > 10 µM (inactive)
13 | CCC12CCC(O)C1N(C)CCC2Sc1ccccc1 (centres undefined) | > 100 µM (inactive) | > 100 µM (inactive) | 52.8 µM (inactive) | > 100 µM (inactive) | 77.4 µM (inactive) | > 100 µM (inactive) | > 100 µM (inactive) | 80 µM (inactive) | 34.8 µM (inactive) | > 100 µM (inactive) | > 100 µM (inactive) | 28.8 µM (inactive) | > 100 µM (inactive) | > 100 | > 100 µM (inactive) | – | 33 µM (inactive) | 76.2 µM (inactive) | 61.2 µM (inactive)
14 | O=C(O)C1c2ccccc2C(C(=O)O)c2ccccc21 (centres undefined) | > 100 µM (inactive) | > 100 µM (inactive) | > 100 µM (inactive) | > 100 µM (inactive) | > 100 µM (inactive) | > 100 µM (inactive) | > 100 µM (inactive) | > 100 µM (inactive) | > 100 µM (inactive) | > 100 µM (inactive) | > 100 µM (inactive) | > 100 µM (inactive) | > 100 µM (inactive) | > 100 | – | > 100 µM (inactive) | > 100 µM (inactive) | > 100 µM (inactive) | > 100 µM (inactive)
15 | O=C(c1cc2ccccc2[nH]1)C(O)(c1cc2ccccc2[nH]1)c1cc2ccccc2[nH]1 | 129 µM (inactive) | > 246 µM (inactive) | > 246 µM (inactive) | > 246 µM (inactive) | > 246 µM (inactive) | > 246 µM (inactive) | > 246 µM (inactive) | > 246 µM (inactive) | > 246 µM (inactive) | > 246 µM (inactive) | > 246 µM (inactive) | – | – | > 246 | > 246 µM (inactive) | > 246 µM (inactive) | > 246 µM (inactive) | 154 µM (inactive) | > 246 µM (inactive)
16 | Cc1cn([C@@H]2C[C@H](CO)[C@@H](O)C2)c(=O)[nH]c1=O | > 100 µM (inactive) | > 100 µM (inactive) | > 100 µM (inactive) | > 100 µM (inactive) | > 100 µM (inactive) | > 100 µM (inactive) | – | > 100 µM (inactive) | > 100 µM (inactive) | > 100 µM (inactive) | > 100 µM (inactive) | > 100 µM (inactive) | > 100 µM (inactive) | > 100 | > 100 µM (inactive) | > 100 µM (inactive) | – | > 100 µM (inactive) | > 100 µM (inactive)
